Assay results taken from patent publication US10100022B2, “Sphingosine kinase inhibitors” (University of Virginia Patent Foundation, priority 2014, dated 2018).
Structures can show the parent of a compound that is named as a salt.

Columns and labels:
[1] = molecular target: T1, human sphingosine kinase type 2 (hSPHK2) (Homo sapiens, UniProt Q9NRA0); experiment: Sphingosine kinase assay, recombinant human SPHK2 ([32P]S1P product, scintillation counting); assay type: biochemical; conditions: read-out: activity hSPHK2 (range estimate of KI)
T1 construct: purchased; host or cells: Sf9 insect cells (baculovirus)
T1 sequence (Q9NRA0 1-654): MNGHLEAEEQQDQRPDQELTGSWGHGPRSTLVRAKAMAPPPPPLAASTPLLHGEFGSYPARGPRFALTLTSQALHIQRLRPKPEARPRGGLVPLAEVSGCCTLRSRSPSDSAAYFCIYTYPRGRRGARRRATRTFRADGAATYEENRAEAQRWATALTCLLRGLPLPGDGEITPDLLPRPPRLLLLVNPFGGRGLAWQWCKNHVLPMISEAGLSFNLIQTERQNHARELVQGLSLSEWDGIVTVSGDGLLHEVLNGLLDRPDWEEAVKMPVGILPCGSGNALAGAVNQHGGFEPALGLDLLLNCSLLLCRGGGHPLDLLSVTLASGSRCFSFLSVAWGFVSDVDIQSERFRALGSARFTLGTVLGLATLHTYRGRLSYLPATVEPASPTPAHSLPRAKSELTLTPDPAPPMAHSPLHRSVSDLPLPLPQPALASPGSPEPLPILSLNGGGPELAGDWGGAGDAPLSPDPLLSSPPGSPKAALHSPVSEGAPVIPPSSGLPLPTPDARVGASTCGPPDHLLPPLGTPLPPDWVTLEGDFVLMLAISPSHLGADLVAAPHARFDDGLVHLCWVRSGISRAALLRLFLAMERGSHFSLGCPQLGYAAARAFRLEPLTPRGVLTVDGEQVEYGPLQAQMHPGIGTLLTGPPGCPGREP
Protocol: (§1) Recombinant baculovirus encoding human sphingosine kinase type 1 (SPHK1) was used to infect Sf9 insect cells and after 2-5 days, cleared lysates were prepared and used without further purification. Human SPHK2, which was partially purified from baculovirus-infected Sf9 cell lysates, was purchased from a commercial source. Sphingosine kinase assays were performed using standard protocols. Product [^32P]S1P was recovered by binding to cation exchange paper and quantified by scintillation counting.

[2] = molecular target: T2, human sphingosine kinase type 1 (hSPHK1) (Homo sapiens, UniProt Q9NYA1); experiment: Sphingosine kinase assay, recombinant human SPHK1 ([32P]S1P product, scintillation counting); assay type: biochemical; conditions: read-out: activity hSPHK1 (range estimate of KI)
T2 construct: made in house; host or cells: Sf9 insect cells (baculovirus)
T2 sequence (Q9NYA1 whole entry): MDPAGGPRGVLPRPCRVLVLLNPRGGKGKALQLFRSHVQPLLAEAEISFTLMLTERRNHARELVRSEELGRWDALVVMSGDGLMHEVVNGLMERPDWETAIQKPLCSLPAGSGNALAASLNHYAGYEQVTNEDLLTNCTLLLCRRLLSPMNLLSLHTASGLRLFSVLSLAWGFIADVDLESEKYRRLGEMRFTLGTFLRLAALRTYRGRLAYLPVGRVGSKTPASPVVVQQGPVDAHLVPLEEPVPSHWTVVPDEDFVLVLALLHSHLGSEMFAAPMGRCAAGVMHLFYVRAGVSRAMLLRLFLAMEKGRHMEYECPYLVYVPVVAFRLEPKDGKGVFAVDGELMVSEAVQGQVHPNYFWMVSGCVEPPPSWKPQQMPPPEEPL
Protocol: as §1

Compound | Ki [1] [µM] | Ki [2] [µM]
N=C(N)N1CCC[C@H]1c1nc(-c2ccc(OCCCc3ccc(Cl)c(Cl)c3)c(C(F)(F)F)c2)no1 [Compound 30A, (S)-amino(2-(3-(4-(3-(3,4-dichlorophenyl)propoxy)-3-(trifluoromethyl)phenyl)-1,2,4-oxadiazol-5-yl)pyrrolidin-1-yl)methaniminium chloride] | < 1 | > 10
N=C(N)N1C[C@H](O)C[C@H]1c1nc(-c2ccc(OCCCc3ccc(Cl)c(Cl)c3)c(C(F)(F)F)c2)no1 [Compound 31A, amino((2S,4R)-2-(3-(4-(3-(3,4-dichlorophenyl)propoxy)-3-(trifluoromethyl)phenyl)-1,2,4-oxadiazol-5-yl)-4-hydroxypyrrolidin-1-yl)methaniminium chloride] | < 1 | > 10
N=C(N)N1CCC[C@H]1c1nc(-c2ccc(OCCCc3ccc(C(F)(F)F)cc3)c(C(F)(F)F)c2)no1 [Compound 32A, (S)-amino(2-(3-(3-(trifluoromethyl)-4-(3-(4-(trifluoromethyl)phenyl)propoxy)phenyl)-1,2,4-oxadiazol-5-yl)pyrrolidin-1-yl)methaniminium chloride] | < 1 | > 10
N=C(N)N1C[C@H](O)C[C@H]1c1nc(-c2ccc(OCCCc3ccc(C(F)(F)F)cc3)c(C(F)(F)F)c2)no1 [Compound 33A, amino((2S,4R)-4-hydroxy-2-(3-(3-(trifluoromethyl)-4-(3-(4-(trifluoromethyl)phenyl)propoxy)phenyl)-1,2,4-oxadiazol-5-yl)pyrrolidin-1-yl)methaniminium chloride] | < 1 | > 10
CCCc1ccc(CCc2ccc(-c3noc([C@@H]4[C@@H](O)CCN4C(=N)N)n3)cc2C(F)(F)F)cc1 [Compound 34A, (2S,3S)-3-hydroxy-2-(3-(4-(4-propylphenethyl)-3-(trifluoromethyl)phenyl)-1,2,4-oxadiazol-5-yl)pyrrolidine-1-carboximidamide hydrochloride] | < 1 | 1 to 10
CCCc1ccc(CCc2ccc(-c3noc([C@@H]4CCCN4C(=N)N)n3)cc2C(F)(F)F)cc1 [Compound 35A, (S)-2-(3-(4-(4-propylphenethyl)-3-(trifluoromethyl)phenyl)-1,2,4-oxadiazol-5-yl)pyrrolidine-1-carboximidamide hydrochloride] | < 1 | > 10
CCCCc1ccc(CCc2ccc(-c3noc([C@@H]4CCCN4C(=N)N)n3)cc2C(F)(F)F)cc1 [Compound 36A, (S)-2-(3-(4-(4-butylphenethyl)-3-(trifluoromethyl)phenyl)-1,2,4-oxadiazol-5-yl)pyrrolidine-1-carboximidamide hydrochloride] | < 1 | > 10
CCCCc1ccc(CCc2ccc(-c3noc([C@@H]4[C@@H](O)CCN4C(=N)N)n3)cc2C(F)(F)F)cc1 [Compound 37A, (2S,3S)-2-(3-(4-(4-butylphenethyl)-3-(trifluoromethyl)phenyl)-1,2,4-oxadiazol-5-yl)-3-hydroxypyrrolidine-1-carboximidamide hydrochloride] | < 1 | 1 to 10
N=C(N)N1CCC[C@H]1c1nc(-c2ccc(CCC3CC3)c(C(F)(F)F)c2)no1 [Compound 38A, (S)-2-(3-(4-(2-cyclopropylethyl)-3-(trifluoromethyl)phenyl)-1,2,4-oxadiazol-5-yl)pyrrolidine-1-carboximidamide hydrochloride] | 1 to 10 | > 10
N=C(N)N1CCC[C@H]1c1nc(-c2ccc(CCc3ccc(C(F)(F)F)cc3)c(C(F)(F)F)c2)no1 [Compound 39A, (S)-2-(3-(3-(trifluoromethyl)-4-(4-(trifluoromethyl)phenethyl)phenyl)-1,2,4-oxadiazol-5-yl)pyrrolidine-1-carboximidamide hydrochloride] | < 1 | > 10
N=C(N)N1CC[C@H](O)[C@H]1c1nc(-c2ccc(CCc3ccc(C(F)(F)F)cc3)c(C(F)(F)F)c2)no1 [Compound 40A, (2S,3S)-3-hydroxy-2-(3-(3-(trifluoromethyl)-4-(4-(trifluoromethyl)phenethyl)phenyl)-1,2,4-oxadiazol-5-yl)pyrrolidine-1-carboximidamide hydrochloride] | < 1 | 1 to 10
COc1ccc(CCc2ccc(-c3noc([C@@H]4[C@@H](O)CCN4C(=N)N)n3)cc2C(F)(F)F)cc1 [Compound 41A, (2S,3S)-3-hydroxy-2-(3-(4-(4-methoxyphenethyl)-3-(trifluoromethyl)phenyl)-1,2,4-oxadiazol-5-yl)pyrrolidine-1-carboximidamide hydrochloride] | < 1 | 1 to 10
COc1ccc(CCc2ccc(-c3noc([C@@H]4CCCN4C(=N)N)n3)cc2C(F)(F)F)cc1 [Compound 42A, (S)-2-(3-(4-(4-methoxyphenethyl)-3-(trifluoromethyl)phenyl)-1,2,4-oxadiazol-5-yl)pyrrolidine-1-carboximidamide hydrochloride] | < 1 | > 10
N=C(N)N1CC[C@H](O)[C@H]1c1nc(-c2ccc(CCC3CCCC3)c(C(F)(F)F)c2)no1 [Compound 43A, (2S,3S)-2-(3-(4-(2-cyclopentylethyl)-3-(trifluoromethyl)phenyl)-1,2,4-oxadiazol-5-yl)-3-hydroxypyrrolidine-1-carboximidamide hydrochloride] | < 1 | 1 to 10
N=C(N)N1CCC[C@H]1c1nc(-c2ccc(CCC3CCCC3)c(C(F)(F)F)c2)no1 [Compound 44A, (S)-2-(3-(4-(2-cyclopentylethyl)-3-(trifluoromethyl)phenyl)-1,2,4-oxadiazol-5-yl)pyrrolidine-1-carboximidamide hydrochloride] | 1 to 10 | > 10
N=C(N)N1CCC[C@H]1c1nc(-c2ccc(OCCCCO)c(C(F)(F)F)c2)no1 [Compound 45A, (S)-2-(3-(4-(4-hydroxybutoxy)-3-(trifluoromethyl)phenyl)-1,2,4-oxadiazol-5-yl)pyrrolidine-1-carboximidamide hydrochloride] | 1 to 10 | > 10
COCCCCOc1ccc(-c2noc([C@@H]3CCCN3C(=N)N)n2)cc1C(F)(F)F [Compound 46A, (S)-2-(3-(4-(4-methoxybutoxy)-3-(trifluoromethyl)phenyl)-1,2,4-oxadiazol-5-yl)pyrrolidine-1-carboximidamide 2,2,2-trifluoroacetate] | > 10 | > 10
C=CCn1c(CCCOc2ccc(-c3noc([C@@H]4[C@@H](O)CCN4C(=N)N)n3)cc2C(F)(F)F)nc2ccccc21 [Compound 47A, ((2S,3S)-2-(3-(4-(3-(1-allyl-1H-benzo[d]imidazol-2-yl)propoxy)-3-(trifluoromethyl)phenyl)-1,2,4-oxadiazol-5-yl)-3-hydroxypyrrolidin-1-yl)(amino)methaniminium chloride] | 1 to 10 | > 10
CCCCCCCCOc1ccc(-c2noc([C@@H]3C[C@H](F)CN3C(=N)N)n2)cc1C(F)(F)F [Compound 48A, (2S,4S)-4-fluoro-2-(3-(4-(octyloxy)-3-(trifluoromethyl)phenyl)-1,2,4-oxadiazol-5-yl)pyrrolidine-1-carboximidamide 2,2,2-trifluoroacetate] | 1 to 10 | > 10
CCCCCCCCOc1ccc(-c2noc([C@@H]3C[C@@H](F)CN3C(=N)N)n2)cc1C(F)(F)F [Compound 49A] | < 1 | > 10
CCc1ccc(CCc2ccc(-c3noc([C@@H]4CCCN4C(=N)N)n3)cc2C(F)(F)F)cc1 [Compound 50A, (S)-2-(3-(4-(4-ethylphenethyl)-3-(trifluoromethyl)phenyl)-1,2,4-oxadiazol-5-yl)pyrrolidine-1-carboximidamide hydrochloride] | < 1 | > 10
N=C(N)N1CCC[C@H]1c1nc(-c2ccc3cc(O)ccc3c2)no1 [Compound 51A, (S)-amino(2-(3-(6-hydroxynaphthalen-2-yl)-1,2,4-oxadiazol-5-yl)pyrrolidin-1-yl)methaniminium chloride] | > 10 | > 10
N=C(N)N1CCC[C@H]1c1nc(-c2ccc3cc(OCc4ccc(Br)cc4)ccc3c2)no1 [Compound 53A, (S)-amino(2-(3-(6-((4-bromobenzyl)oxy)naphthalen-2-yl)-1,2,4-oxadiazol-5-yl)pyrrolidin-1-yl)methaniminium chloride] | 1 to 10 | > 10
N=C(N)N1CCC[C@H]1c1nc(-c2ccc3cc(OCCc4ccc(C(F)(F)F)cc4)ccc3c2)no1 [Compound 54A, (S)-amino(2-(3-(6-(4-(trifluoromethyl)phenethoxy)naphthalen-2-yl)-1,2,4-oxadiazol-5-yl)pyrrolidin-1-yl)methaniminium chloride] | > 10 | > 10
